Laboratory results: ChEMBL document CHEMBL1134647, “Design and synthesis of non-peptidic inhibitors for the Syk C-terminal SH2 domain based on structure-based in-silico screening” (J Med Chem, 2001)

Target: T1, Tyrosine-protein kinase SYK (Homo sapiens, UniProt P43405)
Assay: Inhibitory activity against Syk C-terminal SH2 at 10 mM
Assay type: functional

SMILES	inhibition [%]
O=C(O)CCCNS(=O)(=O)/C=C/c1ccccc1	2.3
Nc1cccc2c(S(=O)(=O)NCC(=O)O)cccc12	39
O=C(O)CCNS(=O)(=O)c1ccc(F)cc1	0.9

Target: T1, Tyrosine-protein kinase SYK
Assay: Inhibitory activity against Syk C-terminal SH2.
Assay type: functional

SMILES	IC50 [µM]
O=C(O)CCCCCN(CCCC1CCCCC1)S(=O)(=O)/C=C/c1ccc(NC(=O)[C@H]2CC[C@@H](C(C(=O)O)C(=O)O)CC2)cc1	40
O=C(O)CCCCCN(CCCC1CCCCC1)S(=O)(=O)/C=C/c1ccc(NC(=O)[C@H]2CC[C@H](C(C(=O)O)C(=O)O)CC2)cc1	38
O=C(O)C(C(=O)O)c1ccccc1	12000
CC(C)CCCCN(CCCCCC(=O)O)S(=O)(=O)/C=C/c1ccc(NC(=O)[C@H]2CC[C@@H](C(C(=O)O)C(=O)O)CC2)cc1	63
CC(C)CCCCN(CCCCCC(=O)O)S(=O)(=O)/C=C/c1ccc(NC(=O)C2CC=C(C(C(=O)O)C(=O)O)CC2)cc1 (stereo not given)	71
O=C(O)C(C(=O)O)C1CCCCC1	5900
O=C(O)CCCCCN(CCCC1CCCCC1)S(=O)(=O)/C=C/c1ccc(NC(=O)C2CC=C(C(C(=O)O)C(=O)O)CC2)cc1 (stereo not given)	41
O=C(O)CCCCCNS(=O)(=O)/C=C/c1ccc(NC(=O)[C@H]2CC[C@H](C(C(=O)O)C(=O)O)CC2)cc1	350
O=C(O)C(C(=O)O)C1CC/C=C\CCC1 (stereo not given)	7700
CC(C)CCCCN(CCCCCC(=O)O)S(=O)(=O)/C=C/c1ccc(NC(=O)[C@H]2CC[C@H](C(C(=O)O)C(=O)O)CC2)cc1	69

Target: T1, Tyrosine-protein kinase SYK
Assay: Inhibitory activity against Syk C-terminal SH2 (at 10 mM)
Assay type: functional

SMILES	IC50 [µM]
O=C(O)CCCCCNS(=O)(=O)/C=C/c1ccccc1	8000

Target: T1, Tyrosine-protein kinase SYK
Assay: Inhibitory activity against Syk C-terminal SH2 domain in in-silico screening
Assay type: functional

SMILES	IC50 [µM]
NC(Cc1ccc(CP(=O)(O)O)cc1)C(=O)O (stereo not given)	14000
